Assay results: publication PMC10458253, “Unraveling the In Vitro Toxicity Profile of Psychedelic 2C Phenethylamines and Their N-Benzylphenethylamine (NBOMe) Analogues” (Pharmaceuticals, 2023)

Experiments:
[1] = tested on: differentiated SH-SY5Y cells; assay: Effect of MAO inhibitors on drug cytotoxicity (neutral red uptake), differentiated SH-SY5Y; type: cell-based; settings: 24 h; for change of drug cytotoxicity with rasagiline (neutral red uptake): 1 µM rasagiline (MAO-B inhibitor), drug concentrations as given in the source
Method: MAO inhibition was used to elucidate the impact of MAO-A and MAO-B in the cytotoxicity of the tested drugs. […] The drugs’ cytotoxicity was then assessed through the neutral red uptake assay and the results were expressed as percentage of control cells. At least four independent experiments were performed, in triplicate.

[2] = tested on: differentiated SH-SY5Y cells; assay: Effect of CYP inhibitors on drug cytotoxicity (neutral red uptake), differentiated SH-SY5Y; type: cell-based; settings: 24 h, drug concentrations as given in the source; for change of neutral red uptake with ketoconazole vs drug alone: 10 μM ketoconazole (CYP3A4 inhibitor); for change of neutral red uptake with quinidine vs drug alone: 10 μM quinidine (CYP2D6 inhibitor); for change of neutral red uptake with ABT vs drug alone: 1000 μM ABT (non-selective CYP inhibitor)
Method: Differentiated SH-SY5Y cells were incubated with the drugs in the presence or absence of different CYP inhibitors: 1000 μM ABT, a non-selective CYP inhibitor, 10 μM quinidine, a specific CYP2D6 inhibitor, or 10 μM ketoconazole, a specific CYP3A4 inhibitor.
(§1) CYP inhibition assay was used to evaluate the drugs’ potential to inhibit drug-metabolizing enzymes. Accordingly, SH-SY5Y and HepG2 cells were seeded in 96-well cell culture plates and pre-incubated with 1000 µM ABT—a non-isoform specific CYP450 inhibitor, 10 µM quinidine—a CYP2D6 inhibitor or 1 µM ketoconazole—a CYP3A4 inhibitor. After 1 h, the drugs (0–500 µM) were co-incubated with the inhibitors for 24 h, at 37 °C, in a 5% CO2–95% air atmosphere. The drugs’ cytotoxicity was then assessed through the neutral red uptake assay for differentiated SH-SY5Y cells, and through the resazurin reduction assay for HepG2 cells, and the results were expressed as percentage of control cells. At least four independent experiments were performed, in triplicate.

[3] = tested on: differentiated SH-SY5Y cells; assay: Resazurin reduction cytotoxicity assay, differentiated SH-SY5Y; type: cell-based; settings: 24 h; for Top (maximal effect): maximum cell death of fitted curve; for EC50: Homo sapiens, cell death curves 0–1500 µM, read-out: EC50 (half-maximum-effect concentration)
Method: (§2) SH-SY5Y cells were acquired from the American Type Culture Collection (Manassas, VA, USA). Cells were cultured in 25 cm^2 flasks using DMEM—high glucose supplemented with 10% heat-inactivated FBS, 1% MEM non-essential amino acids and 1% penicillin/streptomycin mixture, and maintained in a 5% CO2–95% air atmosphere, at 37 °C, until 80% confluence. Cells were routinely subcultured using trypsin-EDTA and, to avoid phenotypic alterations, were always used between passages 23 and 29. In all experiments, the cells were seeded at a density of 25,000 cells/cm^2. As previously described, to achieve a dopaminergic neuronal phenotype, the cells were seeded in a complete DMEM medium containing 10 μM retinoic acid and, after 3 days, 80 nM TPA was added to the cultures for another 3 days.
(§3) Neutral red uptake and resazurin reduction assays were performed after exposure of differentiated SH-SY5Y and HepG2 cells to the drugs under study. To obtain a concentration–response curve, a broad concentration range (0–2000 µM) was investigated, and cytotoxicity was evaluated 24 h after exposure in 96-well cell culture plates. As previously described, neutral red uptake assay is based on the incorporation of neutral red dye into the lysosomes of viable cells and the amount of dye incorporated represents the cells’ lysosomal functionality, and resazurin reduction assay is based on the irreversible reduction of resazurin dye to the fluorescent resorufin product by metabolically active cells.
(§4) Briefly, 24 h after being exposed to different concentrations of the compounds, differentiated SH-SY5Y cells were incubated with either neutral red (50 µg/mL) or resazurin (10 µg/mL) solutions for 90 min, at 37 °C, in a 5% CO2–95% air atmosphere. For HepG2 cells, 24 h after the exposure to the tested drugs, the cells were incubated with either neutral red (50 µg/mL) or resazurin (10 µg/mL) solutions for 45 and 60 min, respectively, at 37 °C, in a 5% CO2–95% air atmosphere.
(§5) In the neutral red uptake assay, at the end of the incubation period, the cell culture medium was removed and a solution of absolute ethyl alcohol/distilled water (1:1) with 5% acetic acid was added to extract the dye absorbed only by the viable cells. The absorbance was measured at 540 nm in a multi-well plate reader (PowerWaveX BioTek Instruments, Winooski, VT, USA). In the resazurin assay, at the end of the incubation period, the fluorescence was measured at 530 nm excitation and 590 nm emission wavelengths in a multi-well plate reader (PowerWaveX BioTek Instruments, Winooski, VT, USA).
(§6) The results were expressed as a percentage of control cells. At least four independent experiments were performed, in triplicate. For differentiated SH-SY5Y cells, the neutral red uptake assay was identified as the most sensitive assay and, therefore, used for the subsequent experiments. On the other hand, for HepG2 cells, the resazurin reduction assay was identified as the most sensitive assay and, therefore, used for the subsequent experiments.

HepG2 cells = assay: Effect of CYP inhibitors on drug cytotoxicity (resazurin reduction), HepG2; type: cell-based; settings: HepG2, 24 h, drug concentrations as given in the source; for change of resazurin reduction with ketoconazole vs drug alone: 1 μM ketoconazole; for change of resazurin reduction with quinidine vs drug alone: 10 μM quinidine; for change of resazurin reduction with ABT vs drug alone: 1000 μM ABT
Method: Analogously to the studies performed in the neuronal model, the impact of the CYP-mediated metabolism on the cytotoxicity of the tested drugs was also evaluated, in HepG2 cells, 24 h after exposure to the drugs in the presence or absence of different CYP inhibitors: 1000 μM ABT, 10 μM quinidine or 1 μM ketoconazole.
as §1

[4] = Chromatographic Hydrophobicity Index (CHI) by HPLC, CHILogD7.4; settings: pH 7.4
Method: The CHI values at pH 7.4 were determined using an experimental protocol described elsewhere [23, 25]. The CHI values were assessed from experimental retention times (tR) of the compounds under study and a mixture of reference compounds obtained on the HPLC system with a Luna C18 (2) column (150 × 4.6 mm, 5 µm, Phenomenex, CA, USA). […] Mobile phase A was 10 mM ammonium acetate (pH 7.4) and mobile phase B was acetonitrile. The following gradient program was applied: 0–7 min 0–100% B, 7–15 min 100% B, 15–17 min 100–0% B. The flow was 1 mL/min, and the injection volume was 40 μL.

[5] = CHI on Immobilized Artificial Membrane (IAM) HPLC, Kpcell; type: physicochemical; settings: partition between internal and external cellular media; estimated from experimental CHI(IAM)
Method: The CHI on IAM (CHI (IAM)) values were determined from the experimental tR obtained on the HPLC system with an IAM.PC.DD2 column (100 × 4.6 mm, 10 µm, Regis Technologies, Inc., Morton Grove, IL, USA). […] The Log Kpcell (partition between internal and external cellular media) values were estimated from the drugs’ experimental CHI IAM values using Equations (2) and (3) described elsewhere. Log kIAM = 0.046 CHI(IAM) + 0.42(2) Log Kpcell = 1.1 Log kIAM(3)

[6] = tested on: differentiated SH-SY5Y cells; assay: Neutral red uptake cytotoxicity assay, differentiated SH-SY5Y; type: cell-based; settings: 24 h; for Top (maximal effect): maximum cell death of fitted curve; for EC50: Homo sapiens, cell death curves 0–1500 µM, read-out: EC50 (half-maximum-effect concentration)
Method: as §2, §3, §4, §5, §6

[7] = PAMPA-BBB permeability assay
From the text: In the present study we used a Parallel Artificial Membrane Permeation Assay (PAMPA) with a membrane mimicking the BBB phospholipidic composition (PAMPA-BBB) to evaluate and predict passive, transcellular permeability of the mescaline-NBOMe, 25B-NBOMe and 25N-NBOMe drugs.
The PiON inc database software was used for data analysis.

[8] = 1 µM clorgyline (MAO-A inhibitor), drug 50-250 µM

Compound | change of drug cytotoxicity with clorgyline (neutral red uptake) [1, 8] | change of neutral red uptake with ketoconazole vs drug alone [2] | change of neutral red uptake with quinidine vs drug alone [2] | change of resazurin reduction with ketoconazole vs drug alone (HepG2 cells) | change of resazurin reduction with quinidine vs drug alone (HepG2 cells) | change of resazurin reduction with ABT vs drug alone (HepG2 cells) | chromatographic logD [4] | change of drug cytotoxicity with rasagiline (neutral red uptake) [1] | Kpcell [5] | Bottom (baseline) [6] | Hill Slope [6] | Top (maximal effect) [6] | EC50 [6] [µM] | Bottom (baseline) [3] | Hill Slope [3] | Top (maximal effect) [3] | EC50 [3] [µM] | −Log Pe ± SD [7] | change of neutral red uptake with ABT vs drug alone [2] | also measured
COc1cc(CCN)cc(OC)c1OC.Cl [Mescaline, 3,4,5-Trimethoxyphenethylamine hydrochloride] | significantly increased the cytotoxicity | small but significant decrease in neutral red uptake | significant decrease in the neutral red uptake | No significant changes | No significant changes | No significant changes | – | – | – | – | – | – | – | – | – | – | – | – | – | cytotoxic effect (in words) ([3]; 0–1500 µM): no significant cytotoxic effects
COc1cc(CCN)c(OC)cc1Br [2C-B, 4-Bromo-2,5-dimethoxy-β-phenethylamine] | – | small but significant decrease in neutral red uptake | significant decrease in the neutral red uptake | significant decrease in the cells’ metabolic capacity | – | small but significant decrease in resazurin reduction | 0.7 | significantly increased the cytotoxicity | 3.08 | 1.900 | 1.746 | 93.68 | 165 | 7.210 | 1.670 | 83.95 | 225 | – | – | –
COc1cc(CCNCc2ccccc2OC)c(OC)cc1Br [25B-NBOMe, 4-Bromo-2,5-dimethoxy-N-(2-methoxybenzyl)-β-phenethylamine] | – | – | significant decrease in the neutral red uptake | significant decrease in the cells’ metabolic capacity | – | small but significant decrease in resazurin reduction | 2.32 | significant increase in cell viability | 9.08 | 0.0825 | 2.687 | 87.85 | 33.9 | 6.827 | 4.464 | 80.62 | 58.4 | 4.4 ± 0.36 | – | –
COc1ccccc1CNCCc1cc(OC)c(OC)c(OC)c1 [Mescaline-NBOMe, 3,4,5-Trimethoxy-N-(2-methoxybenzyl)-β-phenethylamine] | significantly increased the cytotoxicity | small but significant decrease in neutral red uptake | significant decrease in the neutral red uptake | no significant changes in resazurin reduction | no significant changes in resazurin reduction | small but significant decrease in resazurin reduction | 1.34 | significantly increased the cytotoxicity | 2.71 | 1.218 | 2.681 | 98.57 | 406 | 2.774 | 2.524 | 94.72 | 677 | 4.7 ± 0.49 | significant decrease in neutral red uptake | change of drug cytotoxicity with clorgyline (neutral red uptake) ([1]; 1 µM clorgyline, 500 µM drug concentration): significant increase in cell viability
COc1cc([N+](=O)[O-])c(OC)cc1CCN [2C-N, 2,5-dimethoxy-4-nitrophenethylamine] | – | – | significant decrease in the neutral red uptake | significant increase in the metabolic capacity of cells | significant increase in the metabolic capacity of cells | – | 0.37 | significantly increased the cytotoxicity | 0.94 | 6.911 | 2.691 | ≈100 | 733 | 4.440 | 1.627 | ≈100 | 832 | – | significant increase in neutral red uptake | –
